Legend:
[1] = tested on: neuromuscular block induced by rocuronium in isolated mouse hemidiaphragm; experiment: Reversal of neuromuscular block in vitro: isolated mouse hemidiaphragm preparation; settings: for Mouse hemidiaphragm: maximum reversal (%) / concentration of chemical chelator at maximum reversal: 3.1 μM rocuronium; for concentration of chemical chelator at maximum reversal / maximum reversal / EC50: mouse hemidiaphragm; for Reversal of the neuromuscular blocking action of rocuronium (in words): rocuronium-induced block; for maximum reversal / EC50: rocuronium bromide 3.6 μM in the bath, 95% block; for EC50: read-out: 50% reversal concentration
Description: Hemidiaphragms, with phrenic nerves attached, were removed from euthanized male mice (Institute of Cancer Research; bodyweight: 20–60 g). The preparations were mounted on a tissue holder and placed in a tissue bath filled with a modified Krebs-Henseleit solution (composition: 118 mM NaCl, 30 mM NaHCO3, 5 mM KCl, 1 mM KH2PO4, 1 mM MgSO4, 30 mM glucose and 2.5 mM CaCl2) at 37° C. and bubbled with 95% oxygen and 5% carbondioxide. One end of the preparation was connected with a siliconized silk suture to a Grass FT03 force-displacement transducer. An initial force of 10 mN was applied. The phrenic nerve was placed on a bipolar platinum electrode and was stimulated with rectangular pulses of 0.2 ms duration at 20 s (0.05 Hz) intervals at a supramaximal voltage, using a Grass S88 Stimulator. Contractions were recorded on a four channel Grass 79D recorder.
Increasing amounts of reversal agent were then administered into the bath at intervals of 10 min. The % maximum reversal was established. At the end of the experiment, the measured muscle contractions force was plotted against the concentration of reversal agent, and using regression analysis techniques, the 50% reversal concentration was calculated.
After induction of neuromuscular block by rocuronium, the % maximum reversal produced by the addition of a number of γ-cyclodextrin derivatives (compounds 11–16), a cyclic octasaccharide comprising 4 rhamnosyl-mannopyranosyl units (compound 24), or a number of paracyclophane derivatives (compounds 17–21 and 23) are presented in Table II.
Reversal of neuromuscular block in vitro was carried out using the mouse hemidiaphragm preparation as described in Example 6.

[2] = tested on: steady-state neuromuscular block induced by rocuronium bromide (Roc); experiment: Reversal of neuromuscular blockade in vivo, anaesthetized guinea pig, rocuronium
Description: (§1) Male Dunkin-Hartley guinea pigs (bodyweight: 600–900 g) were anaesthetized by i.p. administration of 10 mg/kg pentobarbitone and 1000 mg/kg urethane. After tracheotomy, the animals were artificially ventilated using a Harvard small animal ventilator. A catheter was placed into the carotid artery for continuous monitoring of arterial blood pressure and the taking of blood samples for blood gas analysis. Heart rate was derived from the blood pressure signal. The sciatic nerve was stimulated (rectangular pulses of 0.5 ms duration at 10 s (0.1 Hz) intervals at a supramaximal voltage, using a Grass S88 Stimulator) and the force of M. gastrocnemius contractions was measured using a Grass FT03 force-displacement transducer. Contractions, blood pressure and heart rate were recorded on a multichannel Grass 7D recorder. Catheters were placed in both jugular veins. One catheter was used for the continuous infusion of a neuromuscular blocking agent. The infusion rate of the neuromuscular blocking agent was increased until a steady-state block of 85–90% was obtained. The other catheter was used for administration of increasing doses of the reversal agent. During continuous infusion of the neuromuscular blocking agent, single doses of increasing concentration of reversal agent were given. At the end of the experiment, the measured force of muscle contractions was plotted against the concentration of reversal agent, and using regression analysis techniques, the 50% reversal concentration was calculated.
Reversal of neuromuscular block in vivo, induced by rocuronium bromide, was carried out as described in Example 5.

[3] = tested on: steady-state neuromuscular block induced by vecuronium bromide (Vec); experiment: Reversal of neuromuscular blockade in vivo, anaesthetized guinea pig, vecuronium; settings: Vec infusion, 85–90% block, anaesthetized guinea pigs, i.v. reversal agent; mean
Description: as §1

[4] = tested on: steady-state neuromuscular block induced by pancuronium bromide (Pan); experiment: Reversal of neuromuscular blockade in vivo, anaesthetized guinea pig, pancuronium; settings: Pan infusion, 85–90% block, anaesthetized guinea pigs, i.v. reversal agent; mean
Description: as §1

[5] = tested on: steady-state neuromuscular block induced by suxamethonium chloride (Sux; succinylcholine); experiment: Reversal of neuromuscular blockade in vivo, anaesthetized guinea pig, suxamethonium; settings: Sux infusion, 85–90% block, anaesthetized guinea pigs, i.v. reversal agent; mean
Description: as §1

[6] = tested on: steady-state neuromuscular block induced by rapacuronium bromide (Rap; Org 9487); experiment: Reversal of neuromuscular blockade in vivo, anaesthetized guinea pig, rapacuronium; settings: Rap infusion, 85–90% block, anaesthetized guinea pigs, i.v. reversal agent; mean
Description: as §1

[7] = rocuronium bromide, anaesthetised guinea pig, as in Example 5
[8] = Roc infusion, 85–90% block, anaesthetized guinea pigs, i.v. reversal agent, mean

Compound	Mouse hemidiaphragm: maximum reversal (%) [1] [%]	concentration of chemical chelator at maximum reversal [1] [µM]	Dose (ED50) producing 50% reversal of steady-state neuromuscular block [2, 8]	Dose (ED50) producing 50% reversal of steady-state neuromuscular block [3]	also measured
cyclo[(1–4)-α-L-rhamnopyranosyl-(1–4)-α-D-mannopyranosyl]-tetraoside [Compound 24]	86	288			Reversal of the neuromuscular blocking action of rocuronium (in words) [1]: efficiently blocked; Reversal of the neuromuscular blocking action of rocuronium (in words) ([1]; listed as cyclo-[(1–4)-α-L-rhamno-pyranosyl-(1–4)-α-D-mannopyranosyl]tetraoside): effective
O=C(O)CCC(=O)N1CCCCCN(C(=O)CCC(=O)O)c2ccc(cc2)Cc2ccc(cc2)N(C(=O)CCC(=O)O)CCCCCN(C(=O)CCC(=O)O)c2ccc(cc2)Cc2ccc1cc2 [Compound 21, N, N′,N″, N′″-Tetrakis(3-carboxypropionyl)-1,7, 21, 27-tetraaza[7.1.7.1]para-cyclophane]	0	360			
O=S(=O)(O)c1cc2c(O)c(c1)Cc1cc(S(=O)(=O)O)cc(c1O)Cc1cc(S(=O)(=O)O)cc(c1O)Cc1cc(S(=O)(=O)O)cc(c1O)Cc1cc(S(=O)(=O)O)cc(c1O)Cc1cc(S(=O)(=O)O)cc(c1O)C2 [4-sulfonic calix[6]arene, 4-Sulfonic calix[6]arene]					Dose (ED50) producing 50% reversal of steady-state neuromuscular block [2, 7]: 5.1 µmol/kg; maximum reversal [1]: 120%; EC50 [1]: 34 µM
carboxyethyl-β-CD (DS = 3) [Compound 8]			42 (3) μmol.kg^−1	103 (2) μmol.kg^−1	Dose (ED50) producing 50% reversal of steady-state neuromuscular block [4]: 479 (2) μmol.kg^−1; Dose (ED50) producing 50% reversal of steady-state neuromuscular block [5]: 408 (2) μmol.kg^−1; Dose (ED50) producing 50% reversal of steady-state neuromuscular block [6]: 412 (2) μmol.kg^−1
OC[C@H]1O[C@@H]2O[C@H]3[C@H](O)[C@@H](O)[C@@H](O[C@H]4[C@H](O)[C@@H](O)[C@@H](O[C@H]5[C@H](O)[C@@H](O)[C@@H](O[C@H]6[C@H](O)[C@@H](O)[C@@H](O[C@H]7[C@H](O)[C@@H](O)[C@@H](O[C@H]1[C@H](O)[C@H]2O)O[C@@H]7CO)O[C@@H]6CO)O[C@@H]5CO)O[C@@H]4CO)O[C@@H]3CO [Compound 1, α-cyclodextrin]			1575 (2) μmol.kg^−1	2610 (1) μmol.kg^−1	
carboxymethyl-β-CD (DS 3–3.5) [Compound 7]			139 (3) μmol.kg^−1		
O=C(O)CC(=O)N1CCCCCN(C(=O)CC(=O)O)c2ccc(cc2)Cc2ccc(cc2)N(C(=O)CC(=O)O)CCCCCN(C(=O)CC(=O)O)c2ccc(cc2)Cc2ccc1cc2 [Compound 19, N, N′, N″, N′″-Tetrakis(carboxyacetyl)-1,7, 21, 27-tetraaza[7.1.7.1] paracyclophane]	2.4	108			
β-cyclodextrin-phosphate sodium salt (DS = 3) [Compound 5]			280 (3) μmol.kg^−1		
O=C(O)c1cc2ccc1OCCCCCOc1ccc(cc1C(=O)O)Cc1ccc(c(C(=O)O)c1)OCCCCCOc1ccc(cc1C(=O)O)C2 [Compound 17, 1,7,21,27-tetraoxa-9,17,29,37-tetracarboxy[7.1.7.1]paracyclophane]	11	360			
O=C(O)CCC(=O)N1CC2CCC(CC2)CN(C(=O)CCC(=O)O)c2ccc(cc2)Cc2ccc(cc2)N(C(=O)CCC(=O)O)CC2CCC(CC2)CN(C(=O)CCC(=O)O)c2ccc(cc2)Cc2ccc1cc2 [Compound 23, N, N′, N″, N′″-Tetra (3-carboxypropionyl)-3,4,5,6,7,8,26,27,28,29,30,31-dodecahydro-1,10,24,33-tetraaza[2.2.1.2.2.1]paracyclophane]	90	58			Reversal of the neuromuscular blocking action of rocuronium (in words) [1]: efficiently blocked
2-hydroxypropyl-β-CD [Compound 10]			33 (3) μmol.kg^−1	1598 (4) μmol.kg^−1	
O=S(=O)(O)c1cc2c(O)c(c1)Cc1cc(S(=O)(=O)O)cc(c1O)Cc1cc(S(=O)(=O)O)cc(c1O)Cc1cc(S(=O)(=O)O)cc(c1O)Cc1cc(S(=O)(=O)O)cc(c1O)Cc1cc(S(=O)(=O)O)cc(c1O)Cc1cc(S(=O)(=O)O)cc(c1O)Cc1cc(S(=O)(=O)O)cc(c1O)C2 [4-sulfonic calix[8]arene]					Dose (ED50) producing 50% reversal of steady-state neuromuscular block [2, 7]: 34 µmol/kg; maximum reversal [1]: 124%; EC50 [1]: 36 µM
β-cyclodextrin-phosphate sodium salt (DS = 8) [Compound 6]			120 (2) μmol.kg^−1		
carboxymethyl-β-CD (DS = 3.5) [Compound 2]			134 (2) μmol.kg^−1	800 (1) μmol.kg^−1	
γ-cyclodextrin-phospate sodium salt (DS = 7) [Compound 12]	17	360	52 (2) μmol.kg^−1		
per 2,6-dimethyl-β-CD (DS = 12.6) [Compound 4]			70 (2) μmol.kg^−1	1313 (4) μmol.kg^−1	
2-hydroxy-3-trimethylammonio propyl-β-CD (DS = 3.5) [Compound 3]			518 (2) μmol.kg^−1	1400 (1) μmol.kg^−1	
O=C(O)c1cc2ccc1OCc1ccc(cc1)COc1ccc(cc1C(=O)O)Cc1ccc(c(C(=O)O)c1)OCc1ccc(cc1)COc1ccc(cc1C(=O)O)C2 [Compound 18, 1,10,24,33-tetraoxa-12,20,35,43-tetracarboxy-[2.2.1.2.2.1]paracyclophane]	61	288			Reversal of the neuromuscular blocking action of rocuronium (in words) [1]: efficiently blocked
O=C(O)CCCC(=O)N1CCCCCN(C(=O)CCCC(=O)O)c2ccc(cc2)Cc2ccc(cc2)N(C(=O)CCCC(=O)O)CCCCCN(C(=O)CCCC(=O)O)c2ccc(cc2)Cc2ccc1cc2 [Compound 20, N, N′, N″, N′″-Tetrakis(4-carboxybutyryl)-1,7, 21, 27-tetraaza[7.1.7.1] paracyclophane]	8.7	72			
